Data on one compound can be found in article PMC6131539, “Behavioral Effects of a Potential Novel TAAR1 Antagonist” (Frontiers in Pharmacology, 2018).

For one assay, the system named is VTA dopamine neurons. Description: Electrophysiology: spontaneous firing of VTA dopamine neurons in slices. The format is cell-based, C57Bl/6J mice. The conditions noted are these: 10 nM, bath applied 5 min; positive control. As to the method: All electrophysiological recordings were performed in slice preparations from C57Bl/6J mice (P21-P30). Briefly, mice were anaesthetized with isoflurane and transcardially perfused with an ice-cold sucrose solution containing (in mM): 50 sucrose, 26.2 NaHCO3, 1.25 glucose, 4.9 MgCl2, 3 kynurenic acid, 0.1 CaCl2, and 1.32 ascorbic acid in bicarbonate-buffered solution (aCSF, described below). Mice were then decapitated and brains were extracted. […] Cells were visualized on an upright microscope using “Dodt-type” gradient contrast infrared optics ([Dodt et al., 2002]) and whole-cell recordings were made using a MultiClamp 700B amplifier (Axon Instruments, Union City, CA, United States). Recording electrodes (3–5 MΩ) were filled with (in mM): 136 potassium-D-gluconate, 4 MgCl2, 1.1 HEPES, 5, EGTA, 10 sodium creatine phosphate, 3.4 Mg-ATP, and 0.1 Na2GTP. […] Spontaneous firing activity was recorded in current-clamp mode. […] Firing data for all neurons was analyzed with the MiniAnalysis program (Synaptosoft) using the same criteria. Drug-induced changes in firing are expressed as a percentage of baseline. Drug effects were calculated by comparing the response during the baseline/pre-drug period to the response 5 min after onset of drug administration. […] We therefore assessed the effects of compound 22 on firing rate of dopamine neurons. […]

For another assay, the target named is mouse TAAR1. Set-up: method as in Bradaia et al., 2009. The conditions noted are these: ref Bradaia et al., 2009; read-out: affinity for the mouse TAAR1; cited from earlier work.
A further assay relates to human TAAR1 receptor. More on the design: method as in Bradaia et al., 2009. The conditions noted are these: ref Bradaia et al., 2009; cited from earlier work.

pKi: −log10 of the molar value.

On to `CCOc1cccc(NC(=O)c2ccc(N3CCCC3)c(C(F)(F)F)c2)c1` [EPPTB], for which, in the assay with VTA dopamine neurons, the “increase in firing of dopamine neurons” value stood at 74%. Further, on mouse TAAR1, the pKi was 9.05. In the assay on human TAAR1 receptor, the “binding to the human TAAR1 receptor” value is recorded as “does not bind”.
